Results from patent US8962263B2, “Methods and compositions for detecting the activation state of multiple proteins in single cells” (The Board of Trustees of the Leland Stanford Junior …, priority 2001, dated 2015).

Tests used:
LFA-1 = molecular target: T1, LFA-1 (Mus musculus, UniProt P24063); conditions: oral; cited from earlier work
T1 construct: host or cells: mouse, in vivo

CD56+CD8+ cells = test: flow cytometric conjugate formation assay of CD56+CD8+ cells and HL60 cells; type: cell-based, human; conditions: chemicals 10 μM 30 min prior to ICAM-2 10 μg/ml 30 min
Procedure: A) Conjugate formation of CFSE labeled HL60, cells and CD56^+, CD8^+, cells. Conjugate flow cytometric based assay was performed on PBMC treated with indicated chemicals (10, μM, 30, min) prior to treatment with ICAM-2, (10, μg/ml, 30, min). CFSE labeled HL60, cells were incubated at 25:1, E:T ratio for 5, min, and fixed with 1% paraformaldehyde. Cells were then immunolabeled with CD8 and CD56, antibodies, gated for CD8^+, CD56^+, cell populations and percent HL60, fluorescence was made relative to total HL60, cells. B) IL-2, activated PBMC were either treated with ICAM-2, (10 μg/ml, 30, min) or mock-treated (IgG) and stained for active-LFA-1, (mAb24-Alexa633), phospho-p44/42-Ax488, CD8-CY5PE, and CD56-PE.
Target cell lysis was measured by flow cytoemtric based detection of CFSE labeled HL60 cells. HL60 cells were labeled with 1 μg of CFSE (30 min, 37° C.). […] Percent specific lysis was calculated by the following equation: % specific lysis=100-100×(experimental HL60 count/total control HL60 count). HL60 counts were detectable by the CFSE fluorescence. Percent perforin was calculated by the following equation: % perforin=100×[(experimental perforin MFI−isotype mAb MFI)/(total perforin MFI−isotype mAb MFI)]. […] Cell conjugates were determined by flow cytometry as described (Morgan et al., 2001). […]

NIH3T3 = test: staurosporine induced apoptosis in ICAM-2 transduced NIH3T3 (annexin-V binding, BrdU TUNEL); type: cell-based, murine; conditions: cell type not stated; data not shown
Procedure: A) Pharmacological inhibitors of PI3K abrogate ICAM-2's anti-apoptotic. ICAM-2, or vector transduced BaF3, cells were treated with staurosporine (1, μM) with (unfilled) or without (filled) the addition of 100, nM wortmannin for 24, hours (left bar graph). Apoptosis was determined by nuclear staining and fluorescence microscopy (left bar graph) and by annexin-V binding assay (right bar graph). The proportion of apoptotic cells in each culture without staurosporine was 8%+/−2. The percentage of apoptotic cells is expressed as the mean (bar)+SD of triplicate cultures. ICAM-2, 1CAM2-AC, or vector transduced NIH3T3, were treated with staurosporine ([…]) in the presence or absence of 10, μM LY294002, for 24, hours (right bar graph). DMSO vehicle served as negative control. The percentage of apoptotic cells is expressed as the mean (bar)+/−SD of triplicate cultures. B) Confocal images of PI3K and AKT localization in ICAM-2, (top) or vector control cells (bottom). C) Confocal images of ezrin and the p85, subunit of PI3K (green) localization in ICAM-2, (top) or vector control cells (bottom).
A) The anti-apoptotic effect of ICAM-2, is both wortmannin and LY294002, sensitive. ICAM-2, or vector transduced BaF3, cells were treated with staurosporine (1, μM) with (unfilled) or without (filled) the addition of 100, nM wortmannin for 24 hours. Apoptosis was determined by nuclear staining and fluorescence microscopy (left bar graph) and by annexin-V binding assay (right bar graph). The proportion of apoptotic cells in each culture without staurosporine was 8%±2. The percentage of apoptotic cells is expressed as the mean (bar)±SD of triplicate cultures. ICAM-2, ICAM2-ΔC, or vector transduced NIH3T3, were treated with staurosporine (1, μM) in the presence or absence of 10, μM LY294002, for 24, hours. DMSO vehicle served as negative control. The percentage of apoptotic cells is expressed as the mean (bar)±SD of triplicate cultures. B) ICAM-2, expressing NIH3T3, cells are sensitive to apoptosis in the presence of PI3K inhibitor LY294002. BrdU TUNEL assay was performed in staurosporine (1, μM) or LY294002, (10, μM) treated ICAM-2, ICAM2-ΔC, and control vector transduced NIH3T3, cells. The percentage of apoptotic cells is expressed as the mean (bar)±SD of triplicate cultures.
Apoptosis was determined either by counting pyknotic nuclei, annexin-V binding by flow cytometry, or TUNEL BrdU staining by flow cytometry as indicated. Apoptosis was induced either by staurosporine (1 μm), treatment with anti-mouse Fas (5 μq/ml Santa Cruz Biotechnology (SCB), […] Fas (5 μg/ml Jo2 Biomed) or anti-human Fas (10 ng/ml CH11 Kamiya Biomedical) as indicated in appropriate experiment, IL-3 withdrawal-(24 hrs) or as indicated. For pyknolic nuclei count, NIH3T3 cells were grown on glass coverslips and assayed for apoptosis. Suspension cells were analyzed by nuclear staining with 25 μM acridine orange/25 μm ethidium bromide or 5 μg/ml Hoechst 33342 (Molecular Probes, Eugene, Oreg.). Apoptosis was identified by the presence of characteristic pyknotic nuclei as described (Jacobson and Raff, 1995). At least 5 individual fields were photographed and counted using a Zeiss axioscope fluorescence microscope. For the survival assay 10^6 NIH3T3 cells were plated in 10 cm dishes and incubated overnight at 37° C. The cells were treated with 1 μM staurosporine for 24 hours. The cells were washed and cultured for 24 hours in complete medium. The cells were trypsinized and viable cells counted following trypan blue staining. Untreated cells were counted at the time of treatment. % survival represents (number of viable cells post-treatment)/(number of viable cells pretreatment). FACS based annexin-V-FITC/PI staining was done as described (PharMingen). TUNEL assay was performed as described by manufacturer of Apoptosis BrdU kit (Promega). […]

NK leukemic cell line YT = conditions: cited from earlier work
Syk = conditions: cited from earlier work
Raf and p44/42 MAPK = test: phospho-raf and phospho-p44/42 immunoblot kinase inhibitor screen after ICAM-2 stimulus; type: cell-based, human; conditions: compound 10 μM 30 min, then ICAM-2 10 μg/ml 30 min
Procedure: Serum starved cells were treated with 10, μM of indicated compound 30, minutes prior to being ICAM-2, crosslinked for 30, minutes (10, μg/ml) and assessed for phosphorylated Raf and p44/42, MAPK using phospho specific antibodies in standard immunoblot procedures. Control IgG dissolved in 0.1% DMSO served as negative control. Blots are representative of triplicate experiments. […] Co-immunoprecipitation experiments were performed immunoprecipitating αL and β2, integrin and immunoblotting for the presence of SYK and PYK as a function of a stimulus for 30, minutes as indicated (antibodies used at 10, μg/ml, compounds used at 1, μM and control 19, served as negative control).
A) Phospho-raf and phospho-p44/42, immunoblot inhibition profile by tyrosine kinase inhibitors. […] Cell lysates were immunoblotted for phospho-raf and phospho-p44/42. […] Phospho-specificity was determined by phospho-PykpY402, and phospho-syk (Tyr525/526) antibodies. […] Cells were treated and processed as above. Phospho-specific PKCα/βII, (Thr638) and the following antibodies were used; Pyk2, and Syk were first immunoprecipated, probed with anti-phosphotyrosine antibody (PY20), stripped and subsequently probed with indicated non-phospho specific antibody. Immunoblots are representative of triplicate experiments. […]

Pyk2 = test: sICAM-2 induced Pyk2 phosphorylation (phospho-tyrosine based ELISA, chemical genetic approach); type: cell-based; conditions: phospho-tyrosine based ELISA
Description: E) depicts that LFA-1, induced phosphorylation of Pyk2, and Syk is dependent on PKC. We screened for the inhibition of sICAM-2, induced Pyk2, and Syk phosphorylation by chemical inhibitors to tyrosine kinases using a phospho-tyrosine based ELISA. Pyk2, phosphorylation was abrogated in the presence of PKC inhibitors bisindolymaleimide II (BIM II) and staurosporine (STP), in addition to tyrphostin A9, a specific Pyk2, inhibitor. a Pyk2, phosphorylation was also affected by inhibitors of phospholipase Cg (neomycin), inhibitors of Syk (piceatannol), and PKC inhibitor BIM I. Syk phosphorylation was completely abolished by inhibition of Pyk2, PLCg1, and strongly affected by PKC inhibitors. Thus, both Pyk2, and Syk phosphorylations were dependent on PKC activity, while Syk phosphorylation was additionally dependent on PLCg1, and Pyk2, activity. It was not possible to assess specific PKC isozymes by this method.
A chemical genetic approach was undertaken to determine the hierarchy of PKC, Pyk2, PLCg1, and Syk activities in response to sICAM-2, stimulus by verifying phosphorylation status of each kinase in the presence of respective chemical inhibitors. Inhibition of PKC with BIM II abrogated phosphorylation of Pyk2, PLCg1, and Syk. Inhibition of PLCg1, by neomycin abrogated phosphorylation of Syk, with no inhibition observed for Pyk2. […] Thus, the upstream signaling events from LFA-1, to Raf-1, appear to involve PKC/Pyk2/PLCg1/Syk. […] We are currently pursuing these complexes in a separate study.

T1 sequence (P24063 24-1162): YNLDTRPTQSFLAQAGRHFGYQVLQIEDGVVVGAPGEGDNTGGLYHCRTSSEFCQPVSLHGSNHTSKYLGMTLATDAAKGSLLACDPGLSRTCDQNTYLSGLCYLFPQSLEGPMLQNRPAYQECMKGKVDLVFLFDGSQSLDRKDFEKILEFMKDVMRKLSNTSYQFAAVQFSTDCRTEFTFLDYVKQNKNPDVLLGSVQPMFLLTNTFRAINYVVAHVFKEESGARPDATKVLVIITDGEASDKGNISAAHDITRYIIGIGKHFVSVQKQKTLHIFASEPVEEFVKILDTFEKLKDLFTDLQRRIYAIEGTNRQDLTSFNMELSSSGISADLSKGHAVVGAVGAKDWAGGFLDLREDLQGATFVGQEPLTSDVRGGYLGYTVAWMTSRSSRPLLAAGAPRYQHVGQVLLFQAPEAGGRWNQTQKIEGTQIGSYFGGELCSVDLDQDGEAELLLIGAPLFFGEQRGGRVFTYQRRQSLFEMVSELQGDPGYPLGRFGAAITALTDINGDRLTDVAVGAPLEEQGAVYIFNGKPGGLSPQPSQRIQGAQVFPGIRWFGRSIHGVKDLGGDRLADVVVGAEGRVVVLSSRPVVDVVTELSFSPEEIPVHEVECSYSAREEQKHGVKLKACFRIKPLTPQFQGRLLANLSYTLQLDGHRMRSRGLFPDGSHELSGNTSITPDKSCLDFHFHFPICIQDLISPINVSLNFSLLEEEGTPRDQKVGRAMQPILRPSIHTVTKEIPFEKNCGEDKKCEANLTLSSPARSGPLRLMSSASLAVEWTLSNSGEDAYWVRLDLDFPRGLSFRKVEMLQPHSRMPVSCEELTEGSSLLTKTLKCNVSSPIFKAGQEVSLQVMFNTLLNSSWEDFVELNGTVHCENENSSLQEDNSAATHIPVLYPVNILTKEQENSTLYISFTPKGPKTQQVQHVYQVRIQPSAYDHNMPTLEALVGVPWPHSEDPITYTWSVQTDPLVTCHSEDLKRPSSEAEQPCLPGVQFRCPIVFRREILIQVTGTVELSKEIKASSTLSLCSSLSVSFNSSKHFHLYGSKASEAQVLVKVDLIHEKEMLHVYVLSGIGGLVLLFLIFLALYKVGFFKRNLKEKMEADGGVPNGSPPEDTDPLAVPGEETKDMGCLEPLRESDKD
T1 sequence (P11835 24-771 partner): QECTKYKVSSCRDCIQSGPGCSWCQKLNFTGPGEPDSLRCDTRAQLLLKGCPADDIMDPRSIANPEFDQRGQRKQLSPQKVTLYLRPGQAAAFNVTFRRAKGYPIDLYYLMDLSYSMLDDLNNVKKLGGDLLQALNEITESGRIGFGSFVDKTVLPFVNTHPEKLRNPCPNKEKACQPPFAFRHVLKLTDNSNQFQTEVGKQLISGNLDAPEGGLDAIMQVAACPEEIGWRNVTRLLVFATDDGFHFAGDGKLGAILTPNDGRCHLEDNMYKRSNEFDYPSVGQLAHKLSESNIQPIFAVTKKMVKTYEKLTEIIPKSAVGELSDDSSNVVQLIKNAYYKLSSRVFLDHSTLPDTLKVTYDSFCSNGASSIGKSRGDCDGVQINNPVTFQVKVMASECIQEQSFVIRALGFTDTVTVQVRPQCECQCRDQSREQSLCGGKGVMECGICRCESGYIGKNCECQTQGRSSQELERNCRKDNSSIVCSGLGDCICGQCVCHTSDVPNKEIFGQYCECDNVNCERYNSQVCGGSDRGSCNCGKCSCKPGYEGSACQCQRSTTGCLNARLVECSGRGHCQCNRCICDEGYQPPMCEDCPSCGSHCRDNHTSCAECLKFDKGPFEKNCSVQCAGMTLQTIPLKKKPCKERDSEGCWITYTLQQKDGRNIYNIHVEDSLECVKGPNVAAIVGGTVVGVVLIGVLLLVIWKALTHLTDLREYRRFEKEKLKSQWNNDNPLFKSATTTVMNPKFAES

## CC[C@H](C)C(=O)O[C@H]1C[C@@H](C)C=C2C=C[C@H](C)[C@H](CC[C@H]3C[C@@H](O)CC(=O)N3Cc3ccc4c(CO)c(OC)ccc4c3)[C@H]21 [LFA703]
LFA-1
  inflammatory response: suppressed the inflammatory response

## COc1cccc(-c2cc(=O)c3ccccc3o2)c1N [PD98059]
CD56+CD8+ cells
  effector-target (E:T) conjugate formation: did not
NIH3T3
  effect on ICAM-2 anti-apoptotic effect, other kinase inhibitors: not abrogated
NK leukemic cell line YT
  perforin redistribution: inhibits perforin redistribution to the site of effector-target cell contact

## Oc1cc(O)cc(/C=C/c2ccc(O)c(O)c2)c1 [piceatannol]
Syk
  natural cytotoxicity: inhibits natural cytotoxicity

## CC(C)(C)c1cc(C=C(C#N)C#N)cc(C(C)(C)C)c1O [tyrphostin A9]
Raf and p44/42 MAPK
  effect on ICAM-2 induced activation of Raf and p44/42 MAPK: abrogated
Pyk2
  sICAM-2 induced Pyk2 phosphorylation: abrogated
